Test results: patent publication US8476043B2, “Inhibitors for the soluble epoxide hydrolase” (The Regents of the University of California, priority 2004, dated 2013)
≈ marks a conversion by molar mass, not a printed value.

Key:
[1] = In vitro metabolism in liver microsomes and S9 fractions; format: in vitro ADME; details: rat and human microsomes, with NADPH
Excerpt: Both rat and human microsomes were used for the 950 metabolism study.

Solubility in water = format: physicochemical
human sEH [2] = target: T1, human sEH (Homo sapiens, UniProt P34913); experiment: sEH inhibition, fluorescent assay with cyano(6-methoxy-naphthalen-2-yl)methyl trans-[(3-phenyloxiran-2-yl)methyl]carbonate as substrate; format: biochemical
T1 construct: made in house
T1 sequence (P34913 1-555): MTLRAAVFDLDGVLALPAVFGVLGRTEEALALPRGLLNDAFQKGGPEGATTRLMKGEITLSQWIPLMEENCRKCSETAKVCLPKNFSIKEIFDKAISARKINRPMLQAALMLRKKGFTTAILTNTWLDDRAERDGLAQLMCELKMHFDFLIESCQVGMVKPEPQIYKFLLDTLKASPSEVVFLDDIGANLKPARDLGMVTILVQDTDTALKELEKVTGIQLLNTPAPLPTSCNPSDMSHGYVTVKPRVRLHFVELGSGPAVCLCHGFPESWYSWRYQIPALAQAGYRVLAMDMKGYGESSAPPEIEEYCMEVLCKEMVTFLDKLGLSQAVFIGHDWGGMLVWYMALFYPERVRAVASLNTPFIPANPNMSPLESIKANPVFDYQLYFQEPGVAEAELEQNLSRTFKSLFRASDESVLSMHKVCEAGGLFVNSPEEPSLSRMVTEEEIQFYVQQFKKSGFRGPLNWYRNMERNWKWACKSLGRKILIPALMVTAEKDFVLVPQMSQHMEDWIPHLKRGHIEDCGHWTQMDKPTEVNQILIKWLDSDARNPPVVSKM
How it was run: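 Affinity-purified recombinant human sEH from baculovirus expression; activity followed as formation of fluorescent 6-methoxy-2-naphthaldehyde from the carbonate substrate. IC50 by regression of at least five points, two on each side of the IC50 in the linear region, from at least three separate runs, each in triplicate.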

mouse sEH = target: T2, mouse sEH (Mus musculus, UniProt P34914); experiment: sEH inhibition, spectrometric assay with racemic 4-nitrophenyl-trans-2,3-epoxy-3-phenylpropyl carbonate as substrate; format: biochemical; details: Table 5; spectrometric-based assay; read-out: Mouse sEH IC50
T2 construct: made in house
T2 sequence (P34914 1-554): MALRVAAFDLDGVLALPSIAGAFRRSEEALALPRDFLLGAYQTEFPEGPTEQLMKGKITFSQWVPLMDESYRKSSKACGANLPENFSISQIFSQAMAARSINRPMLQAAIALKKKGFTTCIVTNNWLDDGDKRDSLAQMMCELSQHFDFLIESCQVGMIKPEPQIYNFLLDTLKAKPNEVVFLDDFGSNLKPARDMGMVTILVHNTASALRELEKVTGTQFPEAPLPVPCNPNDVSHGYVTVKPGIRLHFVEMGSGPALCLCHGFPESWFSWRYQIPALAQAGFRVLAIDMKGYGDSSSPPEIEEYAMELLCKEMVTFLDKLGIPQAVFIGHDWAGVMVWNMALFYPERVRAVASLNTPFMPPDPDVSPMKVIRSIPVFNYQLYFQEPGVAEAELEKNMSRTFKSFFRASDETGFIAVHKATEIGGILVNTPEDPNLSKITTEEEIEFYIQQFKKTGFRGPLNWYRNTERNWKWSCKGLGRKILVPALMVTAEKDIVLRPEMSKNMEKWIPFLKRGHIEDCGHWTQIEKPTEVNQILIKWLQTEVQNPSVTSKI
Experimental: (§1) Recombinant mouse sEH and human sEH were produced in a baculovirus expression system and purified by affinity chromatography. […] Protein concentration was quantified by using the Pierce BCA assay using Fraction V bovine serum albumin as the calibrating standard.
(§2) IC50 values were determined in one of two method. One method uses racemic 4-nitrophenyl-trans-2,3-epoxy-3-phenylpropyl carbonate as substrate. […] Assays were performed in triplicate. […] The curve was generated from at least three separate runs, each in triplicate, to obtain the standard deviation (SD) given in Table 1 thru Table 4.

human sEH [3] = target: T1, human sEH; experiment: as above; format: biochemical; details: Table 5; spectrometric-based assay; read-out: Human sEH IC50
Experimental: as §1, §2

Solubility in oil = format: physicochemical; details: Table 5

SMILES | major metabolite in vitro [1] | fold lower water solubility than compound 4 (687) (Solubility in water) [fold] | solubility (Solubility in water; water, Table 5) [µg/mL] | IC50 (human sEH [2]; Table 5, fluorescent-based assay, 0.96 nM human sEH, pH 7.0, [S] = 5 μM, read-out: Human sEH IC50) [nM] | fold improvement in inhibition of the human enzyme (human sEH [2]; compared with 687 (compound 4)) | IC50 (mouse sEH) [nM] | IC50 (human sEH [3]) [nM] | Solubility in oil (Solubility in oil)
CCOCCOCCOCCCCCNC(=O)NC12CC3CC(CC(C3)C1)C2 [Compound 950] | hydroxy metabolite was the major metabolite |  |  |  |  |  |  | 
CS(=O)(=O)NC(=O)CCCCCCCCCCCNC(=O)NC12CC3CC(CC(C3)C1)C2 [Compound 848, N-[12-(3-Adamantan-1-yl-ureido)dodecanoyl]methanesulfonamide] |  | 3 | 10 (≈ 21.3 µM) | 2.1 | about 1.5 fold | 50 ± 10 | 100 ± 10 | 4,000 μg/mL
